{"source": "patent US20210395327A1", "about": "“Growth Hormone-Releasing Hormone Antagonists and Uses Thereof” (United States Government As Represented By The Department …, priority 2019, published 2021)", "key": {"[1]": {"test_system": "mouse lung fibroblasts (Mlg 2908)", "experiment": "Annexin V-propidium iodide assay of lung fibroblasts", "format": "cell-based", "conditions": "24 hours, annexin-V/PI", "description": "(§1) Lung fibroblasts. Newborn mouse lung fibroblasts (Mlg 2908) were obtained from the American Type Culture Collection, Manassas, Va. and cultured in Eagle's minimal essential medium. Cells were grown in 6-well plates before incubation with 1 or 5 μM MIA-602 or vehicle, RNA isolation, and oxygen consumption measurements.\nAnnexin V-propidium iodide assay. Apoptosis and necrosis were assessed with annexin-V/propidium iodide staining (Annexin V: FITC Assay Kit, Bio Rad, Hercules, Calif. 94547) of lung fibroblasts incubated in 0, 1 or 5 μM MIA-602 for 24 hours (Rieger A, Nelson K, Konowalchuk J, Barreda D. (2011). J Visualized Experiments 50:e2597). Culture medium and trypsinized cells were collected and centrifuged at 400×g for 5 minutes. The pellet was resuspended in 100 μL annexin-V/propidium iodide. The suspension was incubated at 37° C. for 20 minutes, then washed with PBS and resuspended in 500 μL PBS and fluorescence quantified by Beckman Coulter Life Sciences CytoFLEX benchtop flow cytometer (Beckman Coulter, Inc., Brea, Calif.)."}, "[2]": {"test_system": "PC3 prostatic cancer cells", "experiment": "In vitro cell viability, PC3", "format": "cell-based, human", "conditions": "antagonist 5 μM for 72 h, cell proliferation assay; MIA602 = 1", "description": "The inhibitory effects of the various synthesized GHRH antagonists were tested in cell proliferation assays in various human cancer cell lines including stomach cancer (KATOIII, N87), colon cancer (HT-29), urothelial cancer (J82, RT4), pancreatic cancer (PANC-1, CFPAC-1), prostatic cancer (PC3), breast cancer (MX-1, HCC1806), ovarian cancer (SK-OV-3, OVCAR-3) and lung cancer (HCC827, H460).\nCell culture. Human cancer cell lines including pancreatic (PANC-1 and CFPAC-1), lung (HCC827 and H460), stomach (NCI-N87 and KATOIII), urothelial (J82, RT4), prostatic (PC3), breast (MX-1 and HCC 1806), colorectal (HT-29), and ovarian (SK-OV-3 and OVCAR-3) were obtained from the American Type Culture Collection (ATCC) and cultured at 37° C. in a humidified 95% air/5% CO2 atmosphere in the medium recommended by ATCC.\nIn vitro cell viability. Cell viability was analyzed as follows: cancer cells including pancreatic (PANC-1 and CFPAC-1), lung (HCC827 and H460), stomach (NCI-N87 and KATOIII), urothelial (J82, RT4), prostatic (PC3) and breast (MX-1 and HCC 1806), colorectal (HT-29) and ovarian (SK-OV-3 and OVCAR-3) were grown on 96 well plates to ˜60% confluence, the cells were starved for 24 h in culture medium containing 0.5% FBS. Cells were then treated with GHRH antagonists MIA602 AVR compounds at concentrations of 1, 2.5 or 5 μM, or vehicle (0.1% DMSO) in quintuplicates for 72 hours. The medium was replaced every 48 hours. Cell viability was measured using CellTiter 96 aqueous one solution kit (Promega). Inhibitory effects of tested AVR compounds in comparison to that of MIA602 are presented as inhibitory potency.\nInhibitory effects of selected AVR compounds in comparison to that of MIA602 are presented as inhibitory potency (e.g., percentage of inhibition). […] The cell lines tested including lung cancer HCC827 (FIG. 2A), pancreatic cancer CFPAC-1 (FIG. 2B), stomach cancer N87 (FIG. 2C), colon cancer HT-29 (FIG. 2D), breast cancers MX-1 and HCC1806 (FIGS. 2 E, F). […]"}, "[3]": {"test_system": "PAK1-STAT3/NF-κB in gastric cancer cells", "conditions": "Gan et al. 2016; cited from earlier work"}, "[4]": {"test_system": "gene expression in normal mouse lung fibroblasts", "experiment": "RNAseq of cultured lung fibroblasts", "format": "cell-based", "conditions": "1 and 5 μM MIA-602, not exposed to bleomycin", "description": "as §1\nRNA was extracted from cultured fibroblasts using a Direct-zol RNA MicroPrep kit (R2060; Zymo Research, Irvine, Calif.). Cells were washed with PBS and lysed in TRIreagent™, then purified using Direct-zol RNA columns. DNase I treatment was done in columns and RNA eluted in DNase/Rnase-free water.\nRNAseq and Pathway analyses. At least 10 ng of total RNA was used as input for the KAPA RNA HyperPrep Kit with RiboErase (HMR) to create ribosomal RNA-depleted sequencing libraries, including sample indexing, to allow for multiplexing. Cluster generation and sequencing was done on the Illumina cBOT and HiSeq 3000 using reagents provided by Illumina, finally generating >32 million single-end 100 base reads per sample."}, "[5]": {"test_system": "mouse lung fibroblasts (Mlg 2908)", "experiment": "Cellular respiration, Seahorse XF Cell Mito Stress Test", "format": "cell-based", "description": "as §1\nCellular respiration. The effects of MIA-602 on mouse lung fibroblast oxygen consumption was measured using the Agilent Seahorse XF Cell Mito Stress Test (Agilent Technologies, Santa Clara, Calif.) (Divakaruni A, Paradyse A, Ferrick D, Murphy A, Jastroch M (2014). Methods in Enzymology 547:309-354). Fibroblasts were incubated with vehicle, 1 or 5 μM MIA-602 for 24 hours before measurement of oxygen consumption. One day before assay 80,000 fibroblasts were seeded into Seahorse 24-well plates (n=6 wells per condition). Basal respiration was established and oligomycin, FCCP and rotenone plus antimycin A were added sequentially to measure ATP production, uncoupled respiration; and, non-mitochondrial oxygen consumption (Wangpaichitr, Wu C, Li Y, Nguyen D, Kandemir H, Shah S, Chen S, Feun L, Prince J, Kuo M, Savaraj N (2017). Oncotarget 8(30):49275-49292)."}}, "note": "Entries after “also recorded” stand apart in the source; their conditions may differ. Non-standard residues stand in square brackets, D forms with d. Residues, ends and D or L forms follow the SMILES beside them. *: point of attachment. Phe(F5) = N[C@@H](Cc1c(F)c(F)c(F)c(F)c1F)C(=O)O; hArg = N=C(N)NCCCC[C@H](N)C(=O)O; 12Ado = NCCCCCCCCCCCC(=O)O; Nle = CCCC[C@H](N)C(=O)O; Orn = NCCC[C@H](N)C(=O)O; Abu = CC[C@H](N)C(=O)O; PhAc = O=C(Cc1ccccc1)*"}
{"smiles": "CCCC[C@H](NC(=O)[C@@H](NC(=O)[C@H](CC(=O)O)NC(=O)[C@H](CCC(N)=O)NC(=O)[C@H](CC(C)C)NC(=O)[C@H](CC(C)C)NC(=O)[C@H](CCCN)NC(=O)[C@H](Cc1c[nH]cn1)NC(=O)[C@H](C)NC(=O)[C@H](CO)NC(=O)[C@H](CC(C)C)NC(=O)[C@H](CCC(N)=O)NC(=O)[C@H](CC)NC(=O)[C@H](CC(C)C)NC(=O)[C@@H](NC(=O)[C@H](CCCN)NC(=O)[C@H](Cc1c[nH]cn1)NC(=O)[C@H](Cc1ccc(OC)cc1)NC(=O)[C@H](CCCCNC(=N)N)NC(=O)[C@H](C)NC(=O)[C@@H](NC(=O)[C@H](Cc1c(F)c(F)c(F)c(F)c1F)NC(=O)[C@@H](NC(=O)[C@H](C)NC(=O)[C@H](CC(=O)O)NC(=O)[C@@H](CCCNC(=N)N)NC(=O)[C@H](Cc1ccc(O)cc1)NC(=O)CCCCCCCCCCCNC(=O)Cc1ccccc1)[C@@H](C)CC)[C@@H](C)O)C(C)C)[C@@H](C)CC)C(=O)N[C@H](CCCNC(=N)N)C(=O)N[C@@H](CCCCNC(=N)N)C(N)=O", "note": "[MIA-602, PhAC-Ada, Tyr D-Arg, Asp, Ala, Ile, 5FPhe, Thr, Ala, Har, Tyr(Me), His, Orn, Val, Leu, Abu, Gin, Leu, Ser, Ala, His, Om, Leu, Leu, Gin, Asp, Ile; Nle, D-Arg, Har NH2, reference compound] ({PhAc-12Ado}-Y[dR]DAI[Phe(F5)]TA[hArg]Y(Me)H[Orn]VL[Abu]QLSAH[Orn]LLQDI[Nle][dR][hArg]-NH2)", "values": [{"measurement": "cytolytic cell death", "setting": "[1]; 1 μM", "result": "9.3±1.1", "unit": "%"}, {"measurement": "cytolytic cell death", "setting": "[1]; 5 μM", "result": "34.9±2.5", "unit": "%"}, {"measurement": "relative inhibitory potency in comparison to MIA-602, Prostatic PC3", "setting": "[2]", "result": 1}, {"measurement": "signaling pathways in gastric cancer cells (in words)", "setting": "[3]", "result": "downregulates p21 activated kinase and STAT3 and NFκB; also recorded: inhibits signaling pathways, including PAK1-STAT3/NF-κB"}, {"measurement": "fibroblast gene expression, RNA-seq (in words)", "setting": "[4]", "result": "significant downregulation of genes involved in collagen fibril organization, cell-matrix adhesion and elastic fiber assembly"}, {"measurement": "basal respiration / basal oxygen consumption (in words)", "setting": "[5]; 5 μM for 24 hours, vs vehicle", "result": "increased"}, {"measurement": "maximal, uncoupled respiration (after FCCP) (in words)", "setting": "[5]; 5 μM for 24 hours, vs vehicle", "result": "increased"}, {"measurement": "spare respiratory capacity (in words)", "setting": "[5]; 5 μM for 24 hours, vs vehicle", "result": "increased"}, {"measurement": "non-mitochondrial respiration (after antimycin A and rotenone) (in words)", "setting": "[5]; 1 and 5 μM for 24 hours", "result": "appeared to increase"}]}
